Experimental findings from patent US11655235B2, “Pyrrolidine and piperidine compounds” (YUHAN CORPORATION, priority 2019, dated 2023) are described below.

This assay has as its target T1, Recombinant human FAP (Homo sapiens, UniProt Q12884).
T1 construct: purchased R&D systems
T1 sequence (Q12884 1-760): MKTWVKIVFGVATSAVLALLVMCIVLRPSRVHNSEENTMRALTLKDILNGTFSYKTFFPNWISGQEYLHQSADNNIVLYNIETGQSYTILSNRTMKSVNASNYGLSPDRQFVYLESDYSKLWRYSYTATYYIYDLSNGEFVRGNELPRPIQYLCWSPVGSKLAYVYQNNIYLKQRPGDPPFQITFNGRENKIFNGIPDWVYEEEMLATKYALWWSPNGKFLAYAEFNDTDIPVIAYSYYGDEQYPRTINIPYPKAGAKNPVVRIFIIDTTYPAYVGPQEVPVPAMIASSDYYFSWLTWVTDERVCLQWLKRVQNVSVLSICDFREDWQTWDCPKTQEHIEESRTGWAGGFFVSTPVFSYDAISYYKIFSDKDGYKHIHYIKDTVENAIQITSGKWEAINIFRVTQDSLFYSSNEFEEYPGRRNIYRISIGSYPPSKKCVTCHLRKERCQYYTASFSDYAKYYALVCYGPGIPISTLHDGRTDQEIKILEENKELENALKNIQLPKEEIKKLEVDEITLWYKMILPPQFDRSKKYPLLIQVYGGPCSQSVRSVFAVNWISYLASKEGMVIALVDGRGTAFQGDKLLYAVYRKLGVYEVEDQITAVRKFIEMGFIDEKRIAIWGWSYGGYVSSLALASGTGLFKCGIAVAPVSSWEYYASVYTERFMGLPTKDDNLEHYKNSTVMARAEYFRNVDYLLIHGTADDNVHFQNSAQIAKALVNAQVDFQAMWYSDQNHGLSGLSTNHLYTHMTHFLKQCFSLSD
Put plainly: FAP FRET assay, FGF21-sequence FRET peptide substrate. It counts as biochemical. The settings on record: FRET peptide with human FGF21 sequence, 6 μM, 37° C. The method, boiled down:
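FRET peptide bearing human FGF21 sequence (6 μM final) cleaved by 10 ng recombinant human FAP at 37° C in HEPES pH 7.2 buffer with NaCl, BSA and EDTA, DMSO up to 0.1%. Signal-rate decrease versus uninhibited control fitted to a four-variable logistic model for IC50.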
With `N#C[C@@H]1C[C@H](F)CN1C(=O)CN1CC[C@H](Nc2cccc3ncccc23)C1` [Example 228, (2S,4S)-4-fluoro-1-[2-[(3S)-3-(5-quinolylamino)pyrrolidin-1-yl]acetyl]pyrrolidine-2-carbonitrile], the IC50 came out at 3 nM. Under `N#C[C@@H]1C[C@H](F)CN1C(=O)CN1CC[C@H](Nc2cccc3ncc(F)cc23)C1` [Example 255, (2S,4S)-4-fluoro-1-[2-[(3S)-3-[(3-fluoro-5-quinolyl)amino]pyrrolidin-1-yl]acetyl]pyrrolidine-2-carbonitrile] stands 1 nM; under `COc1cnc2cccc(N[C@H]3CCN(CC(=O)N4CCC[C@H]4C#N)C3)c2c1` [Example 233, (2S)-1-[2-[(3S)-3-[(3-methoxy-5-quinolyl)amino]pyrrolidin-1-yl]acetyl]pyrrolidine-2-carbonitrile], 0.7 nM. Regarding `N#Cc1ccc(N[C@H]2CCN(CC(=O)N3CCC[C@H]3C#N)C2)c2cccnc12` [Example 247, 5-[[(3S)-1-[2-oxo-2-[(2S)-2-cyanopyrrolidin-1-yl]ethyl]pyrrolidin-3-yl]amino]quinoline-8-carbonitrile], the IC50 stood at 2 nM. Under `N#C[C@@H]1C[C@H](F)CN1C(=O)CN1CCC(Nc2ccc(OC(F)(F)F)c3ncccc23)CC1` [Example 347, (2S,4S)-4-fluoro-1-[2-[4-[[8-(trifluoromethoxy)-5-quinolyl]amino]-1-piperidyl]acetyl]pyrrolidine-2-carbonitrile] stands 5.7 nM; under `Cc1ccc2nccc(OC3CCN(CC(=O)N4C[C@@H](F)C[C@H]4C#N)CC3)c2c1` [Example 410, (2S,4S)-4-fluoro-1-[2-[4-[(6-methyl-4-quinolyl)oxy]-1-piperidyl]acetyl]pyrrolidine-2-carbonitrile], 1.5 nM. In the case of `N#C[C@@H]1C[C@H](F)CN1C(=O)CN1CCC(Nc2cccc3cnc(Cl)cc23)CC1` [Example 352, (2S,4S)-1-[2-[4-[(3-chloro-5-isoquinolyl)amino]-1-piperidyl]acetyl]-4-fluoro-pyrrolidine-2-carbonitrile], the IC50 worked out at 2.5 nM. Take `N#C[C@@H]1C[C@H](F)CN1C(=O)CN1CCC(Nc2ccc(C(F)(F)F)c3ncccc23)CC1` [Example 334, (2S,4S)-4-fluoro-1-[2-[4-[[8-(trifluoromethyl)-5-quinolyl]amino]-1-piperidyl]acetyl]pyrrolidine-2-carbonitrile]: the IC50 came out at 2.6 nM. As to `N#Cc1cnc2cccc(N[C@H]3CCN(CC(=O)N4CCC[C@H]4C#N)C3)c2c1` [Example 232, 5-[[(3S)-1-[2-oxo-2-[(2S)-2-cyanopyrrolidin-1-yl]ethyl]pyrrolidin-3-yl]amino]quinoline-3-carbonitrile], the IC50 was 1.8 nM. Regarding `N#C[C@@H]1CCCN1C(=O)CN1CC[C@H](Nc2ccc(C(F)(F)F)c3ncccc23)C1` [Example 245, (2S)-1-[2-[(3S)-3-[[8-(trifluoromethyl)-5-quinolyl]amino]pyrrolidin-1-yl]acetyl]pyrrolidine-2-carbonitrile], the concentration for half-maximal inhibition (IC50) was 1.2 nM. The figure for `COc1ccc(N[C@H]2CCN(CC(=O)N3C[C@@H](F)C[C@H]3C#N)C2)c2cccnc12` [Example 263, (2S,4S)-4-fluoro-1-[2-[(3S)-3-[(8-methoxy-5-quinolyl)amino]pyrrolidin-1-yl]acetyl]pyrrolidine-2-carbonitrile] is 1.9 nM; for `N#C[C@@H]1C[C@H](F)CN1C(=O)CN1CC[C@H](Nc2ccc(OC(F)(F)F)c3ncccc23)C1` [Example 266, (2S,4S)-4-fluoro-1-[2-[(3S)-3-[[8-(trifluoromethoxy)-5-quinolyl]amino]pyrrolidin-1-yl]acetyl]pyrrolidine-2-carbonitrile] it is 1.2 nM.

Consider `N#C[C@@H]1C[C@H](F)CN1C(=O)CN1CC[C@H](Nc2ccc(OCc3ccccc3)c3ncccc23)C1` [Example 268, (2S,4S)-4-fluoro-1-[2-[(3S)-3-[(8-benzyloxy-5-quinolyl)amino]pyrrolidin-1-yl]acetyl]pyrrolidine-2-carbonitrile], for which the half-maximal inhibitory concentration (IC50) worked out at 0.7 nM. Under `N#C[C@@H]1CCCN1C(=O)CN1CC[C@H](Nc2ccc(F)c3ncccc23)C1` [Example 244, (2S)-1-[2-[(3S)-3-[(8-fluoro-5-quinolyl)amino]pyrrolidin-1-yl]acetyl]pyrrolidine-2-carbonitrile] stands 5.6 nM. As for `COc1cnc2cccc(NC3CCN(CC(=O)N4C[C@@H](F)C[C@H]4C#N)CC3)c2c1` [Example 348, (2S,4S)-4-fluoro-1-[2-[4-[(3-methoxy-5-quinolyl)amino]-1-piperidyl]acetyl]pyrrolidine-2-carbonitrile], the IC50 was 3.9 nM.

For `N#C[C@@H]1C[C@H](F)CN1C(=O)CN1CCC(Nc2cccc3ncc(F)cc23)CC1` [Example 349, (2S,4S)-4-fluoro-1-[2-[4-[(3-fluoro-5-quinolyl)amino]-1-piperidyl]acetyl]pyrrolidine-2-carbonitrile], the IC50 is 4 nM. The figure for `COc1cc2c(NC3CCN(CC(=O)N4C[C@@H](F)C[C@H]4C#N)CC3)cccc2cn1` [Example 355, (2S,4S)-4-fluoro-1-[2-[4-[(3-methoxy-5-isoquinolyl)amino]-1-piperidyl]acetyl]pyrrolidine-2-carbonitrile] is 2.5 nM.
